Experimental data from patent US11396517B1, “Exo-aza spiro inhibitors of menin-MLL interaction” (Janssen Pharmaceutica NV, priority 2017, dated 2022).
pIC50: −log10 of the molar value. Where two headings read alike, the source gives them in different places.

Tests used:
MV-4-11 = experiment: Proliferation assay A (spheroid assay) MV-4-11; format: cell-based, human; details: MV-4-11 cells, 8 d, AUC of confluence against time, absolute IC50, read-out: (3a) Spheroid assay MV-4-11 (IC50(μM)) Assay A
Procedure, shortened: (§1)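 Spheroid growth in ultra-low-attachment round-bottom wells (1,500 MV-4-11, 300 MOLM14 or 750 K562 cells), compound titration at 0.3% DMSO, 8 d at 37° C. Confluence imaged every 4 h; AUC from t=0 baseline expressed as % of DMSO control and fitted for absolute IC50.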

MOLM14 = experiment: Proliferation assay A (spheroid assay) MOLM14; format: cell-based, human; details: Homo sapiens, MOLM-14, 192 h, MOLM14 cells, 8 d, AUC of confluence against time, absolute IC50; read-out: (3a) Spheroid assay MOLM14 (IC50(μM)) Assay A
Procedure, shortened: as §1

K562 = experiment: Proliferation assay B (spheroid assay) K562 control cell line; format: cell-based; details: Homo sapiens, 192 h; K562 cells (MLL wildtype control), confluence at day 8; read-out: (3b) Spheroid assay K562 Assay B
Description: 3b) Proliferation Assay B
The anti-proliferative effect of menin/MLL protein/protein interaction inhibitor test compounds was assessed in human leukemia cell lines. The cell lines MV-4-11 and MOLM14 harbor MILL translocations and express the MILL fusion proteins MLL-AF4 and MLL-AF9, respectively, as well as the wildtype protein from the second allele. […] K562 was used as a control cell line containing two MLL wildtype alleles in order to exclude compounds that display general cytotoxic effects.
MV-4-11 and MOLM14 were cultured in RPMI-1640 (Sigma Aldrich) supplemented with 10% fetal bovine serum (HyClone), 2 mM L-glutamine (Sigma Aldrich) and 50 μg/ml gentamycin (Gibco). K562 were propagated in RPMI-1640 (Sigma Aldrich) supplemented with 20% fetal bovine serum (HyClone), 2 mM L-glutamine (Sigma Aldrich) and 50 μg/ml gentamycin (Gibco).
In order to assess the anti-proliferative effects, 1,500 MV-4-11, 300 MOLM14 cells or 750 K562 cells were seeded in 200 μl media per well in 96-well round bottom, ultra-low attachment plates (Costar, catalogue number 7007). Cell seeding numbers were chosen based on growth curves to ensure linear growth throughout the experiment. Test compounds were added at different concentrations and the DMSO content was normalized to 0.3%. Cells were incubated for 8 d at 37° C. and 5% CO2. Spheroid like growth was measured in real-time by live-cell imaging (IncuCyteZOOM, Essenbio, 4× objective) acquiring images at day 8. Confluence (%) as a measure of spheroid size was determined using an integrated analysis tool.
In order to determine the effect of the test compounds over time, the confluence in each well as a measure of spheroid size, was calculated. Confluence […] at the beginning of the experiment (t=0) was used as baseline for the calculation.
Absolute IC50 values were calculated as percent change in confluence as follows:
LC=Low Control: cells treated with 1 μM of the cytotoxic agent staurosporin
HC=High Control: Mean confluence (%) (DMSO treated cells) % Effect=100−(100*(Sample−LC)/(HC−LC))
To determine the IC50 a curve is fitted to the plot of % Effect vs Log 10 compound concentration using a sigmoidal fit with a variable slope and fixing the maximum to 100% and the minimum to 0%.

Row | Structure (SMILES) | IC50 (MV-4-11; Homo sapiens, MV4-11, 192 h) | IC50 (MOLM14) | IC50 (MV-4-11) | pIC50 (K562)
1 | FC(F)(F)Cc1cc2c(N3CCC4(CC(Nc5ccc6cc[nH]c6c5)C4)C3)ncnc2s1 (mixture of isomers) [Compound 311] | 2.13 µM | 3.98 µM |  | 
2 | O=c1[nH]c2cc(CNC3CCC4(C3)CN(c3ncnc5sc(CC(F)(F)F)cc35)C4)ccc2o1 (single isomer, unassigned) [Compound 58] |  |  | 0.03 µM | 4.85
3 | Cn1c(=O)[nH]c2cc(CNC3CCC4(C3)CN(c3ncnc5sc(CC(F)(F)F)cc35)C4)ccc21 (centres unmarked) [Compound 54] | 0.16 µM | 0.82 µM |  | 
4 | CNC(=O)c1ccc(NC2CC3(CCN(c4ncnc5sc(CC(F)(F)F)cc45)C3)C2)cc1 (centres unmarked) [Compound 93] | 0.09 µM | 0.7 µM |  | 
